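Step 1: Grow cells in 96-well plates. Step 2: Expose to compound for 48 hours at 5 concentrations. Step 3: Interpolate endpoints linearly; if unreached, use highest concentration. GI50 marks 50% less growth.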 Calls of active or inactive are those of the source. No stated cut-off is given here; in the data, active = GI50 up to about 1.1 µM and inactive = higher.
Assays:
Test in all cases: growth of human tumour cells (NCI), 48 h
ACHN = test system: ACHN
BT-549 = test system: BT-549
CAKI-1 = test system: CAKI-1
EKVX = test system: EKVX
HCC 2998 = test system: HCC 2998
HCT-116 = test system: HCT-116
HL-60 = test system: HL-60
HOP-92 = test system: HOP-92
Hs-578T = test system: Hs-578T
K562 = test system: K562
LOX IMVI = test system: LOX IMVI
NCI-H226 = test system: NCI-H226
NCI-H460 = test system: NCI-H460
OVCAR-5 = test system: OVCAR-5
OVCAR-8 = test system: OVCAR-8
SF-268 = test system: SF-268
SK-OV-3 = test system: SK-OV-3
SN12C = test system: SN12C
SR = test system: SR
TK-10 = test system: TK-10

SMILES | GI50 (ACHN) | GI50 (BT-549) | GI50 (CAKI-1) | GI50 (EKVX) | GI50 (HCC 2998) | GI50 (HCT-116) | GI50 (HL-60) | GI50 (HOP-92) | GI50 (Hs-578T) | GI50 (K562) | GI50 (LOX IMVI) | GI50 (NCI-H226) | GI50 (NCI-H460) | GI50 (OVCAR-5) | GI50 (OVCAR-8) | GI50 (SF-268) | GI50 (SK-OV-3) | GI50 (SN12C) | GI50 (SR) | GI50 (TK-10)
COc1ccc(NCC(=O)Nn2c(C)nc3ccc(S(=O)(=O)Nc4ccc(OC)cc4)cc3c2=O)cc1 | > 100 µM (inactive) | > 100 µM (inactive) | > 100 µM (inactive) | > 100 µM (inactive) | > 100 µM (inactive) | > 100 µM (inactive) | > 100 µM (inactive) | > 100 µM (inactive) | > 100 µM (inactive) | > 100 µM (inactive) | > 100 µM (inactive) | > 100 µM (inactive) | > 100 µM (inactive) | > 100 µM (inactive) | > 100 µM (inactive) | > 100 µM (inactive) | > 100 µM (inactive) | > 100 µM (inactive) | > 100 µM (inactive) | > 100 µM (inactive)
Oc1[nH]c(Nc2cccc(Cl)c2)nc2ncnc1-2 | > 100 µM (inactive) | > 100 µM (inactive) | > 100 µM (inactive) | > 100 µM (inactive) | 76.6 µM (inactive) | 62.4 µM (inactive) | 79.8 µM (inactive) | 83 µM (inactive) | 68.5 µM (inactive) | 86.5 µM (inactive) | 80.7 µM (inactive) | > 100 µM (inactive) | > 100 µM (inactive) | > 100 µM (inactive) | > 100 µM (inactive) | > 100 µM (inactive) | > 100 µM (inactive) | > 100 µM (inactive) | > 100 µM (inactive) | > 100 µM (inactive)
N#Cc1c(O)nc2nn3c4ccc5ccccc5c4nnc3c2c1-c1ccc(Cl)cc1 | 2.49 µM (inactive) | 0.174 µM (active) | 2.29 µM (inactive) | 3.93 µM (inactive) | 2.68 µM (inactive) | 2.4 µM (inactive) | 0.421 µM (active) | 2.3 µM (inactive) | 2.76 µM (inactive) | 4.16 µM (inactive) | 1.83 µM (inactive) | 7.14 µM (inactive) | 2.24 µM (inactive) | 6.24 µM (inactive) | 2.27 µM (inactive) | 2.51 µM (inactive) | 3.3 µM (inactive) | 3.34 µM (inactive) | 0.675 µM (active) | 5.89 µM (inactive)
Cc1ccc(/C=C2\N=C(N3CCCC(CO)C3)NC2=O)cc1 (stereo not drawn) | > 100 µM (inactive) | > 100 µM (inactive) | > 100 µM (inactive) | > 100 µM (inactive) | > 100 µM (inactive) | > 100 µM (inactive) | > 100 µM (inactive) | > 100 µM (inactive) | > 100 µM (inactive) | > 100 µM (inactive) | > 100 µM (inactive) | > 100 µM (inactive) |  | > 100 µM (inactive) | > 100 µM (inactive) | > 100 µM (inactive) | > 100 µM (inactive) | > 100 µM (inactive) | > 100 µM (inactive) | > 100 µM (inactive)
COc1c2ccsc2c(OC)c2ccsc12 | > 100 µM (inactive) | > 100 µM (inactive) | 0.478 µM (active) | > 100 µM (inactive) | > 100 µM (inactive) | > 100 µM (inactive) | > 100 µM (inactive) | 39.4 µM (inactive) | 71.4 µM (inactive) | > 100 µM (inactive) | > 100 µM (inactive) | > 100 µM (inactive) | > 100 µM (inactive) | > 100 µM (inactive) | > 100 µM (inactive) | > 100 µM (inactive) | > 100 µM (inactive) | > 100 µM (inactive) | > 100 µM (inactive) | > 100 µM (inactive)
Cc1cc2[nH]c(Cl)c(/C=C3\C(=O)Nc4ccccc43)c2cc1O | 6.53 µM (inactive) | 6.53 µM (inactive) | 5.25 µM (inactive) | 4.7 µM (inactive) | 4.2 µM (inactive) | 2.8 µM (inactive) | 1.14 µM (inactive) | 8.93 µM (inactive) | 4.18 µM (inactive) | 0.957 µM (active) | 3.16 µM (inactive) | 0.542 µM (active) | 3.91 µM (inactive) | 6.46 µM (inactive) | 3.75 µM (inactive) | 4.69 µM (inactive) | 4.83 µM (inactive) | 3.38 µM (inactive) | 0.228 µM (active) | 9.71 µM (inactive)
C/C=C1/CC(C)C(C)(O)C(=O)OCC2C(O)CN3CCC(OC1=O)C23 (stereo not drawn) | > 100 µM (inactive) | > 100 µM (inactive) | > 100 µM (inactive) | > 100 µM (inactive) | > 100 µM (inactive) | > 100 µM (inactive) | > 100 µM (inactive) | > 100 µM (inactive) | > 100 µM (inactive) | > 100 µM (inactive) | > 100 µM (inactive) | > 100 µM (inactive) | > 100 µM (inactive) | > 100 µM (inactive) | > 100 µM (inactive) | > 100 µM (inactive) | > 100 µM (inactive) | > 100 µM (inactive) | > 100 µM (inactive) | > 100 µM (inactive)
N#Cc1ccc(C(=O)/C=C/c2ccc(O)c(O)c2)cc1 | 17.3 µM (inactive) | 12.6 µM (inactive) | 15.3 µM (inactive) | 17.2 µM (inactive) | 14.8 µM (inactive) | 10.5 µM (inactive) | 2.5 µM (inactive) | 15.5 µM (inactive) | 24.4 µM (inactive) | 7.1 µM (inactive) | 11.5 µM (inactive) | 20.2 µM (inactive) | 16.1 µM (inactive) | 17.7 µM (inactive) | > 40.4 µM (inactive) | 14.1 µM (inactive) | 21.9 µM (inactive) | 15.5 µM (inactive) | 1.57 µM (inactive) | 14.1 µM (inactive)
CCn1nc2c3c(ncn3C(C)(C)O2)c1=O | > 100 µM (inactive) | > 100 µM (inactive) | > 100 µM (inactive) | > 100 µM (inactive) | > 100 µM (inactive) | > 100 µM (inactive) | > 100 µM (inactive) | > 100 µM (inactive) | > 100 µM (inactive) | > 100 µM (inactive) | > 100 µM (inactive) | > 100 µM (inactive) | > 100 µM (inactive) | > 100 µM (inactive) |  | > 100 µM (inactive) | > 100 µM (inactive) | > 100 µM (inactive) | > 100 µM (inactive) | > 100 µM (inactive)
Nc1ccccc1.O=P(O)(O)c1ccccc1 | > 100 µM (inactive) | > 100 µM (inactive) | > 100 µM (inactive) | > 100 µM (inactive) | > 100 µM (inactive) | > 100 µM (inactive) | > 100 µM (inactive) | > 100 µM (inactive) | > 100 µM (inactive) | > 100 µM (inactive) | > 100 µM (inactive) | > 100 µM (inactive) | > 100 µM (inactive) | > 100 µM (inactive) | > 100 µM (inactive) | > 100 µM (inactive) | > 100 µM (inactive) | > 100 µM (inactive) | > 100 µM (inactive) | > 100 µM (inactive)
